# Entries after “also recorded” stand apart in the source; their conditions may differ.
# Key:
# ECs = conditions: cited from earlier work
# vascular SMCs = conditions: cited from earlier work
# [1] = tested on: platelet suspensions or whole blood; conditions: in vitro; cited from earlier work
# [2] = tested on: human aortic smooth muscle cells; test: Human aortic smooth muscle cell proliferation (Example 10); assay type: cell-based; conditions: HASMC, progesterone 10 μg/ml; for smooth muscle cell proliferation (in words): up to 8 days
# Procedure: For cell cultures grown longer than 3 days, culture medium was changed twice weekly, according to standard protocols in the art, and included antibiotics and other standard additives as appropriate.
# (§1) Cell cultures were maintained at 37° C. in an atmosphere containing 5% carbon dioxide. Appropriate precautions were taken to prevent accelerated breakdown, including protection of the cell cultures from light.
# At each timepoint, triplicate samples were analyzed via growth measurements. The rate of cell proliferation was assayed by counting the number of cells across the 8 day growth period. Absolute cell density was measured with a Coulter Counter. Cell viability was determined by trypan blue staining.
# [3] = tested on: human coronary smooth muscle cell (HCSMC); test: Human coronary smooth muscle cell proliferation (Example 14); assay type: cell-based; conditions: for difference in growth of progesterone treated SMC versus control: 30 μg/ml; for Average Number of Cells/dish / SMC proliferation (in words): HCSMC, progesterone 30 μg/ml; for SMC proliferation (in words): days 1, 3, 5
# Procedure: In addition, cells will be grown for 5 and 7 days. For cell cultures grown longer than 3 days, culture medium is changed twice weekly, according to standard protocols in the art, and includes antibiotics and other standard additives as appropriate.
# as §1
# Cultured human coronary endothelial and smooth muscle cells were obtained from commercial services. […] Dilutions were prepared using ethanol such that the total quantity of ethanolic drug volume added to any experimental culture was 10 μL. For proliferation and apoptosis studies, EC or SMC was seeded in multiple culture wells at a density of 5,000 cells/cm^2. […] Cell counts were conducted at days 1, 3, and 5 and will be conducted at day 7, using a Coulter counter. From these counts, the influence of the drug concentration on cell growth rate was calculated.
# Sampling and analysis of SMC is performed as follows. At each time point, triplicate samples are analyzed for growth measurements. The rate of cell proliferation is assayed by counting the number of cells across the 8 day growth period. Absolute cell density is measured with a Coulter Counter. Cell viability is determined by a live-dead cell apoptosis assay (Molecular Probes, Inc.).
# V189 (VEGF189) = conditions: perivascular decidual endometrial cells, mid-late secretory phase and early gestation; cited from earlier work
# [4] = tested on: human infragenicular VSMCs; test: Human infragenicular VSMC proliferation under high glucose and insulin (Example 12); assay type: cell-based; conditions: progesterone 10 ng/mL, glucose 100/200 mg/dL, insulin 0/100 ng/mL, day 6
# Procedure: Methods are according to 2002 J Vasc Surg 36, 833-838, except as otherwise noted.
# Human infragenicular VSMCs are isolated from the tibial arteries of male patients with diabetes undergoing lower extremity amputation. Immunocytochemical studies with confocal microscopy are performed for progesterone receptor identification in these VSMCs. Cells are grown to subconfluence, followed by exposure to deprived media with various glucose (100 and 200 mg/dL) and insulin (no insulin and 100 ng/mL) concentrations. […] Cell count and methyl-3H-thymidine incorporation are used to determine cellular proliferation. Cell count with hemocytometry is performed on day 6. DNA synthesis as reflected through methyl-3H-thymidine incorporation is measured at 24 hours.
# [5] = tested on: human coronary endothelial cells (HCEC); test: Human coronary endothelial cell growth (Example 14); assay type: cell-based
# Procedure: In addition, cells will be grown for 5 and 7 days. For cell cultures grown longer than 3 days, culture medium is changed twice weekly, according to standard protocols in the art, and includes antibiotics and other standard additives as appropriate. […] Addition of the progesterone-treated or control (untreated) medium to the cells was counted as day 0. […] Cell cultures were maintained at 37° C. in an atmosphere containing 5% carbon dioxide. Appropriate precautions were taken to prevent accelerated breakdown, including protection of the cell cultures from light. Cultured human coronary endothelial and smooth muscle cells were obtained from commercial services. […] Dilutions were prepared using ethanol such that the total quantity of ethanolic drug volume added to any experimental culture was 10 μL. For proliferation and apoptosis studies, EC or SMC was seeded in multiple culture wells at a density of 5,000 cells/cm^2. […] Cell counts were conducted at days 1, 3, and 5 and will be conducted at day 7, using a Coulter counter. From these counts, the influence of the drug concentration on cell growth rate was calculated. Sampling and analysis of endothelial cells is performed as follows. At each time point, triplicate samples are analyzed for growth measurements. The rate of cell proliferation is assayed by counting the number of cells across the 8 day growth period. Absolute cell density is measured with a Coulter Counter. Cell viability is determined by a live-dead cell apoptosis assay (Molecular Probes, Inc.).
# [6] = tested on: primary astrocyte cultures; test: Glucose transport inhibition in astrocytes (Example 13); assay type: cell-based, rat; conditions: 24 hours exposure
# [7] = tested on: human aortic endothelial cells (HAEC) or U937 monocytic cells; conditions: d-alpha-tocopherol 20, 40, 60 micromol/l for 20 h, IL-1beta stimulated; cited from earlier work
# HAEC = conditions: cited from earlier work
smiles,measurement,setting,value
"CCCCCC/C=C/C=C\CCCCCCCC(=O)O [C18:2c9t11, rumenic acid]",EC production of PAF,ECs,inhibit EC production of PAF
same,secretion of eicosanoids (PGI2 and PGE2),vascular SMCs,attenuate secretion of eicosanoids
same,platelet aggregation,[1],inhibit platelet aggregation
"CC(=O)[C@H]1CC[C@H]2[C@@H]3CCC4=CC(=O)CC[C@]4(C)[C@H]3CC[C@]12C [Progesterone, pregn-4-ene-3,20-dione]",Average number of cells per dish,[2]; day 1,7902 cells per dish
same,Average number of cells per dish,[2]; day 3,14871 cells per dish
same,Average number of cells per dish,[2]; day 6,17618 cells per dish
same,Average number of cells per dish,[2]; day 8,20018 cells per dish
same,smooth muscle cell proliferation (in words),[2],decrease SMC's compared to control in a dose response fashion
same,smooth muscle cell proliferation (in words),[2]; listed as progesterone,inhibited smooth muscle cell proliferation
same,difference in growth of progesterone treated SMC versus control,"[3]; day 1, inhibition",12.1%
same,difference in growth of progesterone treated SMC versus control,"[3]; day 3, inhibition",20.8%
same,difference in growth of progesterone treated SMC versus control,"[3]; day 5, inhibition",53.7%
same,Average Number of Cells/dish,[3]; day 1,7092 Cells/dish
same,Average Number of Cells/dish,[3]; day 3,9492 Cells/dish
same,Average Number of Cells/dish,[3]; day 5,10844 Cells/dish
same,SMC proliferation (in words),[3],decrease SMC's compared to control in a dose response fashion
same,SMC proliferation (in words),[3]; listed as progesterone,showed inhibition of SMC on the first day of treatment; also recorded: inhibits SMC proliferation
same,V189 expression,V189 (VEGF189),selectively increases
same,cellular proliferation by cell count,[4],significantly inhibited cellular proliferation
same,increase in growth of the progesterone treated EC versus control,"[5]; 30 μg/ml, day 1",5.3%
same,difference in growth of progesterone treated EC versus control,"[5]; 30 μg/ml, day 3, increase",27.5%
same,difference in growth of progesterone treated EC versus control,"[5]; 30 μg/ml, day 5, increase",29.3%
same,Average Number of Cells/dish,"[5]; HCEC, progesterone 30 μg/ml, day 1",6207 Cells/dish
same,Average Number of Cells/dish,"[5]; HCEC, progesterone 30 μg/ml, day 3",7227 Cells/dish
same,Average Number of Cells/dish,"[5]; HCEC, progesterone 30 μg/ml, day 5",8658 Cells/dish
same,endothelial cell growth (in words),"[5]; HCEC, progesterone 30 μg/ml, days 1, 3, 5",promoted growth of the EC both on the first and third days; also recorded: enhanced endothelial cell growth; also recorded: increases endothelial cells
CCCCC/C=C\C=C\CCCCCCCCC(=O)O [C18:2t10c12],EC production of PAF,ECs,inhibit EC production of PAF
same,secretion of eicosanoids (PGI2 and PGE2),vascular SMCs,attenuate secretion of eicosanoids
same,platelet aggregation,[1],inhibit platelet aggregation
C[C@]12CCC(=O)C=C1CC[C@@H]1[C@@H]2[C@@H](O)C[C@@]2(C)[C@H]1CC[C@]2(O)C(=O)CO [cortisol],concentration inhibiting glucose transport,[6],1 µM
"Cc1c(C)c2c(c(C)c1O)CC[C@@](C)(CCC[C@H](C)CCC[C@H](C)CCCC(C)C)O2 [vitamin E, d-alpha-tocopherol]",adhesion of HAEC and U937 monocytic cells,[7],inhibited their adhesion
same,IL-1beta-induced productions of MCP-1 and IL-8,"HAEC; 20, 40, 60 micromol/l",dose-dependently suppressed
same,"IL-1beta-stimulated expression of ICAM-1, VCAM-1 and E-selectin","HAEC; 20, 40, 60 micromol/l",suppressed
same,IL-8 production,HAEC; 60 micromol/l,reduced IL-8 production significantly
same,IL-1beta-induced production of IL-6,HAEC; at the doses used,dose-dependently inhibited
same,spontaneous production of IL-6,HAEC; at the doses used,did not significantly change
same,spontaneous production of MCP-1,HAEC; up to 60 micromol/l,not effective
CCCCCC/C=C/C=C/CCCCCCCC(=O)O [C18:2t9t11],platelet aggregation,[1],inhibit platelet aggregation

# Reference: patent publication US20160220738A1, “PROGESTERONE-CONTAINING COMPOSITIONS AND DEVICES” (priority 2007, published 2016)
